The source of these data is ChEMBL document CHEMBL5465560, “Selectivity Literature for EUbOPEN Chemogenomic Library” (2024).

Molecules are shown by their SMILES.

The target of assay [1] is Mitogen-activated protein kinase kinase kinase 10 (Homo sapiens) (UniProt Q02779). The assay can be described thus: Selectivity interaction (KinomeScan (DiscoverX)) EUB0000595a MAP3K10. The settings on record: at 10 µM.
Assay [2] deals with Mast/stem cell growth factor receptor Kit (Homo sapiens), P10721 [L576P]. The assay can be described thus: (§1) Selectivity interaction (KinomeScan (DiscoverX)) EUB0001619a KIT. To be noted: at 1 µM.
For assay [3], the system named is Mast/stem cell growth factor receptor Kit (Homo sapiens), P10721 [D816H]. Described as §1. The settings on record: at 1 µM.
Assay [4] has as its target Wee1-like protein kinase (Homo sapiens) (UniProt P30291). To be noted: at 10 µM.
The target in assay [5] is STE20-like serine/threonine-protein kinase (Homo sapiens, UniProt Q9H2G2). The assay can be described thus: Selectivity interaction (KinomeScan (DiscoverX)) EUB0000666a SLK. The settings on record: at 10 µM.
The target in assay [6] is Glycogen synthase kinase-3 alpha (Homo sapiens, UniProt P49840). The assay can be described thus: Selectivity interaction (KinomeScan (DiscoverX)) EUB0000607a GSK3A. The settings on record: at 10 µM.
Assay [7] addresses Fibroblast growth factor receptor 4 (Homo sapiens, UniProt P22455). To be noted: at 10 µM.
In assay [8] the target is Calcium/calmodulin-dependent protein kinase type II subunit delta (Homo sapiens) (UniProt Q13557). The assay can be described thus: Selectivity interaction (ActivX KiNativ screen (kinase selectivity in THP-1 cell lysates)) EUB0000639a CAMK2D. The class given is subcellular. To be noted: lysate, at 5 µM.
In assay [9] the target is Fibroblast growth factor receptor 3 (Homo sapiens, UniProt P22607). The assay can be described thus: Selectivity interaction (Kinase panel (DSF assay)) EUB0001559a FGFR3.
Assay [10] has as its target RAC-alpha serine/threonine-protein kinase (Homo sapiens, UniProt P31749). The assay can be described thus: Selectivity interaction (KinomeScan (DiscoverX)) EUB0000045b AKT1.
In assay [11] the test system is Epidermal growth factor receptor (Homo sapiens), P00533 [UNDEFINED MUTATION]. The assay can be described thus: Selectivity interaction (ProQinase) EUB0000171b EGFR. To be noted: at 1 µM.
Assay [12] addresses T1, Dual specificity mitogen-activated protein kinase kinase 4 (Homo sapiens) (UniProt P45985).
T1 sequence (whole entry): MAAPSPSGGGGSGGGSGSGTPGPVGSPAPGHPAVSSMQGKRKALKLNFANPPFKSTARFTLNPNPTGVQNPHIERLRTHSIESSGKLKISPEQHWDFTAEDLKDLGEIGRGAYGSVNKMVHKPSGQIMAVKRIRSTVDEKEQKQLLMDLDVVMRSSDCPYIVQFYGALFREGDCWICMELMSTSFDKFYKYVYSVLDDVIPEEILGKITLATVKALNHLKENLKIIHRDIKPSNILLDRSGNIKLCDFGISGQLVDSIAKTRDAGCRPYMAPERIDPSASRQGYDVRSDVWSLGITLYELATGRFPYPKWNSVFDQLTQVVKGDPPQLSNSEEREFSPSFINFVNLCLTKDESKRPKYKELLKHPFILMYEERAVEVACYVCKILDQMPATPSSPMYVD
The assay can be described thus: Selectivity interaction (ProQinase) EUB0000171b MAP2K4.

For assay [13], the target named is Non-receptor tyrosine-protein kinase TYK2 (Homo sapiens, UniProt P29597). The assay can be described thus: Selectivity interaction (Ambit KINOMEscan and KiNATiv profiling in Jurkat cells) EUB0000090b TYK2. The class given is cell-based. The settings on record: at 1 µM.
Assay [14] addresses Activin receptor type-1-like (Homo sapiens) (UniProt P37023). The assay can be described thus: Selectivity interaction (Ambit KINOMEscan and KiNATiv profiling in Jurkat cells) EUB0000090b ACVRL1. It counts as cell-based. The settings on record: at 1 µM.
Assay [15] concerns the target T2, Serine/threonine-protein kinase Sgk3 (Homo sapiens) (UniProt Q96BR1).
T2 sequence (whole entry): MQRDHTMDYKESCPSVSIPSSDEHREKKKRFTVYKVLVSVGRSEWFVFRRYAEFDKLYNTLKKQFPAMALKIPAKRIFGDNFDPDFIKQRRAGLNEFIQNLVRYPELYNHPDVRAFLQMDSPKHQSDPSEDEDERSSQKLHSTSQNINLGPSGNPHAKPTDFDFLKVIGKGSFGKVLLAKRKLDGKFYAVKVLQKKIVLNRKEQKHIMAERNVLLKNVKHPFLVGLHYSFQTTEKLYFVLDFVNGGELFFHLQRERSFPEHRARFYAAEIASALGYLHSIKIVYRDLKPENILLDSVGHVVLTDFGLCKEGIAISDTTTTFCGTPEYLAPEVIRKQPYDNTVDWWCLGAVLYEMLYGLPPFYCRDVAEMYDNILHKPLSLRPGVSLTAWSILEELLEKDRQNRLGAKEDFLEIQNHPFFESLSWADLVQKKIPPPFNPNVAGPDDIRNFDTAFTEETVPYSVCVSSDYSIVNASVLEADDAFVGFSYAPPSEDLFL
The assay can be described thus: Selectivity interaction (Upstate Kinase Profiler service (Millipore)) EUB0000056c SGK3. To be noted: at 1 µM.

Assay [16] has as its target Ribosomal protein S6 kinase beta-1 (Homo sapiens, UniProt P23443). The assay can be described thus: Selectivity interaction (KinomeScan (DiscoverX)) EUB0000655a RPS6KB1. The settings on record: at 10 µM.
In assay [17] the target is T3, Serine/threonine-protein kinase D1 (Homo sapiens) (UniProt Q15139).
T3 sequence (whole entry): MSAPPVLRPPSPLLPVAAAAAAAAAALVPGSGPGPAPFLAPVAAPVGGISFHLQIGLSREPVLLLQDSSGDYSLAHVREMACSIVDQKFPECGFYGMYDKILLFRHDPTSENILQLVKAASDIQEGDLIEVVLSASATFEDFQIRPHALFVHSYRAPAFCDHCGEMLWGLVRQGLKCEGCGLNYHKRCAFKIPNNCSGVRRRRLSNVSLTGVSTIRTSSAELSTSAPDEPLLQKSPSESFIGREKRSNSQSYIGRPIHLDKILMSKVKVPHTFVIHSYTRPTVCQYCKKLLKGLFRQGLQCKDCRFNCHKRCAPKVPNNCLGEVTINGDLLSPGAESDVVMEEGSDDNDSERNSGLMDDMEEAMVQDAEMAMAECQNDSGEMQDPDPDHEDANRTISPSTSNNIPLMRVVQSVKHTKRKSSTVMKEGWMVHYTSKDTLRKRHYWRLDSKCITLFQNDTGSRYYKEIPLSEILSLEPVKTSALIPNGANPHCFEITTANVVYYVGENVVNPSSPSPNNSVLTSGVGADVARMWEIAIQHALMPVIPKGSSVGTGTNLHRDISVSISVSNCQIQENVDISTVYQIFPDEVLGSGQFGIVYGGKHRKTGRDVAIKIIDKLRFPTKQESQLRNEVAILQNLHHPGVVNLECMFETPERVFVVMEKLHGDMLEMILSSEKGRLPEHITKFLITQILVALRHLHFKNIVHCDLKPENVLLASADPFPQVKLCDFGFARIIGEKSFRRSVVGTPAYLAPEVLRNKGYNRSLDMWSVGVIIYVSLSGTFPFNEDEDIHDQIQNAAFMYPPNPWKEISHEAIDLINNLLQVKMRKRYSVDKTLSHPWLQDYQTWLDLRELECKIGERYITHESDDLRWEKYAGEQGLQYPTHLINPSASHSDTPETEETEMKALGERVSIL
The assay can be described thus: Selectivity interaction (Millipore kinase profiler) EUB0000124b PRKD1. The settings on record: at 10 µM.

Chain of RAC-alpha serine/threonine-protein kinase (P31749 whole entry): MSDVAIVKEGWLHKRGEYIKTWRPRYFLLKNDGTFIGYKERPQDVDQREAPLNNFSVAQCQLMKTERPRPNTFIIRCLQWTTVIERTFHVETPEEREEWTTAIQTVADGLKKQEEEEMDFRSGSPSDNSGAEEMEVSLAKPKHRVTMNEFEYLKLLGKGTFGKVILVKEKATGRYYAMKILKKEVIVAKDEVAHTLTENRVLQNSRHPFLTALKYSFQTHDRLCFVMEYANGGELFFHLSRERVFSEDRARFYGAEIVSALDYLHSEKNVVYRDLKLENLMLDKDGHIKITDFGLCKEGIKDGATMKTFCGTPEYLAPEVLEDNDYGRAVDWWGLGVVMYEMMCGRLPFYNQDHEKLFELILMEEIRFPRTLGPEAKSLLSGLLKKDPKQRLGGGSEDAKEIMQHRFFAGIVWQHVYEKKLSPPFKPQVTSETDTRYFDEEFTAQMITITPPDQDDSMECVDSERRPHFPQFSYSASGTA
Chain of Wee1-like protein kinase (Homo sapiens) (P30291 whole entry, looked up): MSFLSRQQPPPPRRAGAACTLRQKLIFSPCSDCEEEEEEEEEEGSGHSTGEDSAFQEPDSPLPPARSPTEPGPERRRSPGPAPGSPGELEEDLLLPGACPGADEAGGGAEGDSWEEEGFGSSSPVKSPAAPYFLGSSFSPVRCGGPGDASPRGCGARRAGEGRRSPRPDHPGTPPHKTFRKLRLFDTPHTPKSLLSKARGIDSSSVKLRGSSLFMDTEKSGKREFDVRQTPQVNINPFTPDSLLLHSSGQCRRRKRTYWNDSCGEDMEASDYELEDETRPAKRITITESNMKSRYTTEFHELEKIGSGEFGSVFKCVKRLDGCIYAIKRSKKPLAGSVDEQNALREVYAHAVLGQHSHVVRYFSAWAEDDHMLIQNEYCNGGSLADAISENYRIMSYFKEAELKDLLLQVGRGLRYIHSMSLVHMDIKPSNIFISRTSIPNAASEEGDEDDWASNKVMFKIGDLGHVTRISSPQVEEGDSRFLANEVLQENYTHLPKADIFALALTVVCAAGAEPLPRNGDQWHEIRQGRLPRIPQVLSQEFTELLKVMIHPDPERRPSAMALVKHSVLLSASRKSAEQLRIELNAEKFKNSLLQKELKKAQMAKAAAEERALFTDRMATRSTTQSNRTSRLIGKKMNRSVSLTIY
Chain of Non-receptor tyrosine-protein kinase TYK2 (P29597 whole entry): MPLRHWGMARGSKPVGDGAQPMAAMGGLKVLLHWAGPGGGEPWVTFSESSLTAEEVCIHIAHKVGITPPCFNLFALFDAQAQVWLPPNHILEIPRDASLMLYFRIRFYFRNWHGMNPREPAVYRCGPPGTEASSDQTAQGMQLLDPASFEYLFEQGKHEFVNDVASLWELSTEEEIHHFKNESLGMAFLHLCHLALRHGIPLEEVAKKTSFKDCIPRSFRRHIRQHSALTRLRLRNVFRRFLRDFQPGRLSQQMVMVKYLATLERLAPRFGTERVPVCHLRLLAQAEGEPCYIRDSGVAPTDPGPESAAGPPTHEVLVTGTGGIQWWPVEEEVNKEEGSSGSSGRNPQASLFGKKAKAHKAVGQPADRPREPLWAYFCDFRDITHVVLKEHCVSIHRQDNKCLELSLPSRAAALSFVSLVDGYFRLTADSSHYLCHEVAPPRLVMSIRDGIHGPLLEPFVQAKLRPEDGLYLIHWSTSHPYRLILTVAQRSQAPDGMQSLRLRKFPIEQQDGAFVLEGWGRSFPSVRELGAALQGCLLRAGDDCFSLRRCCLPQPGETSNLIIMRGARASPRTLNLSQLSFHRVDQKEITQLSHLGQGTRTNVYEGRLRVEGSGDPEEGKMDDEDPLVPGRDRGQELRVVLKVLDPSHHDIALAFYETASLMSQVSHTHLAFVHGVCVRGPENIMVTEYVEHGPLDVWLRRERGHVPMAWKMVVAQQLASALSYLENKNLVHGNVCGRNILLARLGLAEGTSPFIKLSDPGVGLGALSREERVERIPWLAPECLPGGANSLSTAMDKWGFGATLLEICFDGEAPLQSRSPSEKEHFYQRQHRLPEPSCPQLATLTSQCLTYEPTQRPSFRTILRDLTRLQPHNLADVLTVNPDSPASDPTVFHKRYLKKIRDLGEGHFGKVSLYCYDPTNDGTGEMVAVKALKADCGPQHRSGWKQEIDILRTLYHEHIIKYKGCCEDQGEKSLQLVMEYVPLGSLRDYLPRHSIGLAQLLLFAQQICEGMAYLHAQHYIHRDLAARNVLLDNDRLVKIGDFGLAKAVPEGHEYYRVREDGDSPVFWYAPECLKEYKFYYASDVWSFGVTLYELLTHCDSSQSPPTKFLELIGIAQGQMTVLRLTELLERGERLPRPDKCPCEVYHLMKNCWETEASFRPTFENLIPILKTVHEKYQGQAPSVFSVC
Chain of Ribosomal protein S6 kinase beta-1 (P23443 whole entry, looked up): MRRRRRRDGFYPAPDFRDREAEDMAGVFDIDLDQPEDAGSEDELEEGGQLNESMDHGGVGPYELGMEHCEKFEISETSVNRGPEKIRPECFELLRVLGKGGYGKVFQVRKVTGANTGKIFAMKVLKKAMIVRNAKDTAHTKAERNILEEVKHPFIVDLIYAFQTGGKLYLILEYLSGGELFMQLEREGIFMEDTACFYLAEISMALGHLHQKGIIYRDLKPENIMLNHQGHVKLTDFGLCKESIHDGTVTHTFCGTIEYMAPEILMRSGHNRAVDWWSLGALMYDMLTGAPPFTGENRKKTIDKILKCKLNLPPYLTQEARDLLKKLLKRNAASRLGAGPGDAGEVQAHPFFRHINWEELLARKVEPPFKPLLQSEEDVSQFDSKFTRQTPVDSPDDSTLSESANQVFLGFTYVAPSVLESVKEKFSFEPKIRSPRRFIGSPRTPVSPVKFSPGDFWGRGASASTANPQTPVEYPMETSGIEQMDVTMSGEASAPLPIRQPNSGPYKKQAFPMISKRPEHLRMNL
Chain of STE20-like serine/threonine-protein kinase (Q9H2G2 whole entry, looked up): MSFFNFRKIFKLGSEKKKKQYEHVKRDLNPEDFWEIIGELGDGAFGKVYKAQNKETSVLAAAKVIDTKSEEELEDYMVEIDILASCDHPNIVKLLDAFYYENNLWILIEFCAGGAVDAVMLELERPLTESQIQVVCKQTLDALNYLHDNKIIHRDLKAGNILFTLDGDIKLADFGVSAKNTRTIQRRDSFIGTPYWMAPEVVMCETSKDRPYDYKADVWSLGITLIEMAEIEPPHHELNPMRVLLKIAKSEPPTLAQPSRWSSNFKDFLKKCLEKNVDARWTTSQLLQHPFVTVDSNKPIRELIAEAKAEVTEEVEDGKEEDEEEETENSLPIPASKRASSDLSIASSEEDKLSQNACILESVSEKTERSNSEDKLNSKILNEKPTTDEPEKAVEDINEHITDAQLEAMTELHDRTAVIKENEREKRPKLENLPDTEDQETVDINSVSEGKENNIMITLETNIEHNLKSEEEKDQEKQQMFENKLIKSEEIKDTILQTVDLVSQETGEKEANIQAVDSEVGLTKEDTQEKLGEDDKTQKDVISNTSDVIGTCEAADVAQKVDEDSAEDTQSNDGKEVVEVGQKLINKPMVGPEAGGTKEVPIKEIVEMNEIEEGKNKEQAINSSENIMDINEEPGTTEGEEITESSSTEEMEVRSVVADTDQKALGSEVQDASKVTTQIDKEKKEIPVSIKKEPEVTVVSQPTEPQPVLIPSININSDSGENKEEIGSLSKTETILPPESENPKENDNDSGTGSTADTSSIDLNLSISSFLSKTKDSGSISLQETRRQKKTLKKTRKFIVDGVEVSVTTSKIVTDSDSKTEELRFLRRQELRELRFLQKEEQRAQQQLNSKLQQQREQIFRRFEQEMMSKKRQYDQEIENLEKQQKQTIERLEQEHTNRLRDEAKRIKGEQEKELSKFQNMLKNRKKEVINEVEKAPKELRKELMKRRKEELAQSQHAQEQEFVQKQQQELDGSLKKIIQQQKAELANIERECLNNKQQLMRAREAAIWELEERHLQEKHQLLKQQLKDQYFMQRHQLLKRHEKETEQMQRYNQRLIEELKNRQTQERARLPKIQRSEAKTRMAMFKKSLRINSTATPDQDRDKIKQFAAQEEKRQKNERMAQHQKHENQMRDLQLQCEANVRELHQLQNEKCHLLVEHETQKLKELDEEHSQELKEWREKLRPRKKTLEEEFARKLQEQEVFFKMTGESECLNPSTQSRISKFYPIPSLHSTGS
Chain of Fibroblast growth factor receptor 3 (P22607 23-806 limits assumed): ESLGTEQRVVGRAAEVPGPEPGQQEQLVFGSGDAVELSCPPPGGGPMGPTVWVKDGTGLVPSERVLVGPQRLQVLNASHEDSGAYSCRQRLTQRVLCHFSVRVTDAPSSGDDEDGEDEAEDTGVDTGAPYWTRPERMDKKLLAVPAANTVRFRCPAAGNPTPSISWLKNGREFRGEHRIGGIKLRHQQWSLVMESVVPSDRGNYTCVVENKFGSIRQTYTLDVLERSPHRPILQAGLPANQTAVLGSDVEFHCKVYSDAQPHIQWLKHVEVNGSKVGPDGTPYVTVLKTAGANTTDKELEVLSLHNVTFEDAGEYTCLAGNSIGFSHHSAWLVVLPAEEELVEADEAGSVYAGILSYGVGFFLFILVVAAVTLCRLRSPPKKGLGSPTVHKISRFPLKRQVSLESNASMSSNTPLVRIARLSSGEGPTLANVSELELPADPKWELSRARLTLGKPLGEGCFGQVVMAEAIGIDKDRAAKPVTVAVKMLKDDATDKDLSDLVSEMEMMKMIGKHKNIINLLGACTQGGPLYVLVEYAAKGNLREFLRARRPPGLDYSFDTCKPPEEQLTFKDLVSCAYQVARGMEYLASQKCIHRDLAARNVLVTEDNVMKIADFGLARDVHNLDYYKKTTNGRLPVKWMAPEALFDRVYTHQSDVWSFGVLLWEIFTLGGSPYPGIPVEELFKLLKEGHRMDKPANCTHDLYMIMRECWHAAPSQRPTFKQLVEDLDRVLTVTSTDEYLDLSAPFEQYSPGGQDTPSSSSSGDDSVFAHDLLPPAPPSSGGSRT

`COCC(=O)NC/C=C/c1ccc2ncnc(Nc3ccc(Oc4ccc(C)nc4)c(C)c3)c2c1` [CP-724714]: the % of control in assay [1] was determined as 100%. As to `N#Cc1cccc(-c2c[nH]c3ncnc(N4CCOCC4)c23)c1`, the % of control in assay [2] worked out at 89%; in assay [3], 92%. `CCN(CC)CCCCNc1ncc2cc(-c3cc(OC)cc(OC)c3)c(NC(=O)NC(C)(C)C)nc2n1` registered a % of control in assay [4] of 100%.

In assay [5], `O=C(NOC[C@H](O)CO)c1ccc(F)c(F)c1Nc1ccc(I)cc1F` gave a % of control of 93%. Regarding `CNC(=O)Nc1ccc(-c2nc(N3CC4CCC(C3)O4)c3cnn(C4CCC5(CC4)OCCO5)c3n2)cc1`, the % of control in assay [6] came out at 82%. Take `Cc1cc([C@@H](C)Nc2ccccc2C(=O)O)c2nc(N3CCOCC3)cc(=O)n2c1` [AZD-6482]: in assay [7], the % of control came out at 100%. `CC[C@@H]1[C@H](F)C(=O)N[C@@H]1COc1nccc2cc(C(N)=O)c(OC)cc12` [ZIMLOVISERTIB]: in [8], the % of inhibition worked out at 56.2%. `CN(C(=O)c1cnn2cccnc12)c1cc2c(cc1N1CCOCC1)C(=O)N(C[C@@H](F)C(C)(C)O)C2` came in with a dTM in [9] of -0.3 K.

In the case of `C=CC(=O)Nc1cc(-n2c(=O)ccc3cnc4ccc(-c5ccc(NS(C)(=O)=O)cc5)cc4c32)ccc1C`, the values for the % of control in assay [10] (at 1 µM) and in assay [10] (at 10 µM) were 12% and 100%, respectively.

As for `C=CC(=O)Nc1cccc(C(=O)Nc2ccc(Nc3cc(-c4[nH]c(SC)nc4C)ccn3)cc2)c1`, the % of control was 88% in assay [11], 71% in assay [12] (at 1 µM) and 90% in assay [12] (at 5 µM). Take `CN(C)C/C=C/C(=O)Nc1ccc(C(=O)N2CCCC(Nc3ncc(Cl)c(-c4c[nH]c5ccccc45)n3)C2)cc1` (centres undefined): the % of control in [13] turned out to be 99%; in assay [14], 79%.

Take `Cc1ccc(-c2ccc3c(ccc4sc5c(c43)NC[C@@H](C)NC5=O)n2)cn1`: in assay [15], the % of inhibition is -1%. In [16], `CN(C)CCOc1ccc(-c2nc(-c3ccncc3)c(-c3ccc4c(c3)CC/C4=N\O)[nH]2)cc1` came in with a % of control of 85%.

On to `CC(=O)Nc1cccc(-n2c(=O)n(C3CC3)c(=O)c3c(Nc4ccc(I)cc4F)n(C)c(=O)c(C)c32)c1`, for which the % of control in assay [17] was found to be 111%.
